# “And” between values parts separate entries of the source, which are not always exact repeats. Identical values can stand only once.
# Assays:
# [1] = tested on: orthotopic xenograft pancreatic cancer (PANC-1); assay: Therapeutic effect (II) with gemcitabine cycles: tumor growth (IVIS) and survival (Example 7); format: in vivo, NOD-SCID mice; conditions: for inhibition of the tumor growth of the orthotopic xenograft pancreatic cancer compared to control: composition 24 mg/kg daily, gemcitabine 100 mg/kg in gemcitabine cycles
# Protocol: The human pancreatic adenocarcinoma cell line PANC-1 obtained from preparation example 2 was cloned and labelled with luminescence and fluorescence vector. The luminescence and fluorescence-labelled cells were implanted into pancreas of experimental mice (40 NOD-SCID experimental mice purchased from BioLASCO Taiwan Co., Ltd) with a cell number of 5×10^5 by surgery. 10 days after the cell implantation to the pancreas of the animals, the baseline data was measured by noninvasive in vivo imaging system (IVIS). After the baseline IVIS data were obtained, all the experimental mice were randomly and evenly assigned into groups [the value of mean±3 s.d. of measured IVIS data was calculated, and the animals having an IVIS data within the standard range were assigned into control group (physiological saline was used), the group of the composition of the present invention (24 mg/kg the composition obtained for preparation example 1 was administrated daily), gemcitabine group (100 mg/kg gemcitabine was administered by intravenous injection twice per week continuously for three weeks and discontinuing gemcitabine on the fourth week. These four weeks were named as gemcitabine cycle. There were three gemcitabine cycles in the present example.), and the combination group (100 mg/kg gemcitabine was administered by intravenous injection twice per week continuously for three weeks, and discontinuing gemcitabine on the fourth week, and the 24 mg/kg composition of the present invention obtained from the preparation example 1 were administered daily). […] The time points of IVIS data measurement of this example were: Baseline 10 Day (Baseline 10D), the 17th day (7 days after treatment), the 24th day (14 days after treatment), the 31st day (21 days after treatment), the 38th day (28 days after treatment), the 45th day (35 days after treatment), and the 59th day (49 days after treatment) of experiment. The blood of the experimental mice was collected and the T-bilirubin, GOT, and GPT in blood were examined to monitor the reason causing the jaundice on the fixed time points [Baseline 10 Day (Baseline 10D), the 4th week after treatment, the 8th week after treatment, the 10th week after treatment, and the 12th week after treatment,]. Whether the jaundice occurred or not was also observed by naked eyes. The jaundice signs of mice which could be observed by naked eyes included: emaciation, swollen gall, yellow dark skin, and abnormal yellow limbs and tail. The survival period of each mouse during the experiment was recorded.
# [2] = Jaundice observation and blood tests T-bilirubin, GOT/AST, GPT/ALT (Example 6); format: in vivo, NOD-SCID mice
# Protocol: The luminescence and fluorescence-labelled cells were implanted into pancreas of experimental mice (50 NOD-SCID experimental mice purchased from BioLASCO Taiwan Co., Ltd) with a cell number of 5×10^5 by surgery. 10 days after the cell implantation to the pancreas of the animals, the baseline data was measured by noninvasive in vivo imaging system (IVIS). After the baseline IVIS data were obtained, all the experimental mice were randomly and evenly assigned into groups [the value of mean±3 s.d. of measured IVIS data was calculated, and the animals having an IVIS data within the standard range were assigned into control group (physiological saline was used), the group of the composition of the present invention obtained from preparation example (24 mg/kg the composition obtained for preparation example 1 was administrated directly into the stomachs of the mice through feeding tubes once per day), gemcitabine group (100 mg/kg gemcitabine was administered by intravenous injection twice per week), and combination group (24 mg/kg the composition of the present invention was administered daily and 100 mg/kg gemcitabine was administered twice per week), followed by the administration. […] The blood tests for total bilirubin (T-bilirubin), glutamate oxaloacetate transaminase/aspartate aminotransferase (GOT/AST), and glutamate pyruvate transaminase/alanine transaminase (GPT/ALT) of all experimental animals on the 9th week were conducted and the mice were observed whether the jaundice occurred or not by the naked eyes. The jaundice signs of mice which could be observed by naked eyes included: emaciation, swollen gall, yellow dark skin, and abnormal yellow limbs and tail.
# [3] = tested on: orthotopic xenograft pancreatic cancer (PANC-1); assay: Therapeutic effect (I) with gemcitabine: tumor growth (IVIS) and survival (Example 6); format: in vivo, NOD-SCID mice
# Protocol: The human pancreatic adenocarcinoma cell line PANC-1 obtained from preparation example 2 was cloned and labelled with luminescence and fluorescence vector. The luminescence and fluorescence-labelled cells were implanted into pancreas of experimental mice (50 NOD-SCID experimental mice purchased from BioLASCO Taiwan Co., Ltd) with a cell number of 5×10^5 by surgery. 10 days after the cell implantation to the pancreas of the animals, the baseline data was measured by noninvasive in vivo imaging system (IVIS). After the baseline IVIS data were obtained, all the experimental mice were randomly and evenly assigned into groups [the value of mean±3 s.d. of measured IVIS data was calculated, and the animals having an IVIS data within the standard range were assigned into control group (physiological saline was used), the group of the composition of the present invention obtained from preparation example (24 mg/kg the composition obtained for preparation example 1 was administrated directly into the stomachs of the mice through feeding tubes once per day), gemcitabine group (100 mg/kg gemcitabine was administered by intravenous injection twice per week), and combination group (24 mg/kg the composition of the present invention was administered daily and 100 mg/kg gemcitabine was administered twice per week), followed by the administration. The dosage and dosage regimen of the composition of the present invention were decided based on the results of example 4 that there were no significant differences between the high-dose group and the low-dose group, so the dosage of 24 mg/kg was chosen for this experiment. The dosage and the dosage regimen of first-line drug for the pancreatic cancer were decided in accordance with two journal articles: Cook, Natalie, et al. “Gamma secretase inhibition promotes hypoxic necrosis in mouse pancreatic ductal adenocarcinoma.” Journal of Experimental Medicine 209.3 (2012): 437-444. and Olive, Kenneth P., et al. “Inhibition of Hedgehog signaling enhances delivery of chemotherapy in a mouse model of pancreatic cancer.” Science (2009), so that the gemcitabine was administered at the dosage of 100 mg/kg twice per week for the experiment. The time points of IVIS data measurement were: Baseline 10 Day (Baseline 10D), the 17th day (the 7th day after administration), the 24th day (14 days after treatment), the 31st day (21 days after treatment), and the 38th day (28 days after treatment) of the experiment. […] The survival period of each mouse during the experiment was recorded.
# [4] = Jaundice observation and blood tests T-bilirubin, GOT, GPT (Example 7); format: in vivo; set-up: dose or concentration left out as unconfirmed; conditions: 13th week after treatment
# Protocol: The luminescence and fluorescence-labelled cells were implanted into pancreas of experimental mice (40 NOD-SCID experimental mice purchased from BioLASCO Taiwan Co., Ltd) with a cell number of 5×10^5 by surgery. 10 days after the cell implantation to the pancreas of the animals, the baseline data was measured by noninvasive in vivo imaging system (IVIS). After the baseline IVIS data were obtained, all the experimental mice were randomly and evenly assigned into groups [the value of mean±3 s.d. of measured IVIS data was calculated, and the animals having an IVIS data within the standard range were assigned into control group (physiological saline was used), the group of the composition of the present invention (24 mg/kg the composition obtained for preparation example 1 was administrated daily), gemcitabine group (100 mg/kg gemcitabine was administered by intravenous injection twice per week continuously for three weeks and discontinuing gemcitabine on the fourth week. These four weeks were named as gemcitabine cycle. […] The survival period of each mouse during the experiment was recorded. […]
smiles,measurement,setting,value
Nc1ccn([C@@H]2O[C@H](CO)[C@@H](O)C2(F)F)c(=O)n1 [gemcitabine],inhibition of the tumor growth of the orthotopic xenograft pancreatic cancer compared to control,[1]; 28th day after treatment,50%-60%
same,inhibition of the tumor growth of the orthotopic xenograft pancreatic cancer compared to control,[1]; 49th day after treatment,50%-60%
same,Average survival period,"[1]; Example 7, control group 89.4",114.7 days
same,Survival period of the experimental mice,"[1]; individual mice, 7 per group, Example 7",109 Days (2×) and 113 Days and 119 Days and 140 Days and 105 Days and 108 Days
same,jaundice,"[2]; 9th week after treatment, gemcitabine continuously twice per week",jaundice was found
same,T-bilirubin in the blood,"[2]; 9 weeks after treatment, versus groups not treated with gemcitabine, FIG. 13A",significantly higher
same,GOT in the blood,"[2]; 9 weeks after treatment, versus groups not treated with gemcitabine, FIG. 13B",significantly higher
same,GPT in the blood,"[2]; 9 weeks after treatment, versus groups not treated with gemcitabine, FIG. 13C",significantly higher
same,effect of inhibiting the tumor growth of the pancreatic cancer compared to control,"[3]; 28 days after treatment, composition 24 mg/kg daily, gemcitabine 100 mg/kg i.v. twice per week",around 50%
same,day of the experiment on which the first dead mouse was found,"[3]; Example 6, control 60th day",77 days
same,day of the experiment on which the last dead mouse was found,"[3]; Example 6, control 91st day",100 days
same,average survival period of the whole group,"[3]; Example 6, control 80.1 days",89.4 days
same,number of mice with T-bilirubin higher than the standard,[4],one
